In patent US10041905B2, “Electrochemically active agents for pH modulation in biological buffers” (Robert Bosch GmbH, priority 2015, dated 2018):

Key:
[1] = Electrochemical generation of H+ or OH- ions at indium tin oxide electrode surfaces (electro-oxidation / electro-reduction, cyclic voltammetry); format: physicochemical
From the text: Electrode material used: The electrode material was indium tin oxide. This is a semiconducting electrode surface with very large potential window in an aqueous solution.
Oxidation of ascorbic acid at the electrode surfaces produced H^+ ions and changed the electrode surface pH to a more acidic state: AH2→A+2H^++2e^−, where AH2 is ascorbic acid ([…]) (as shown in FIG. 5). The electrode potential at which it oxidizes was less than 0.5V for Indium tin oxide material vs Ag/AgCl reference electrode (as shown in FIG. 7). This potential was less than the voltages needed for the oxygen evolution reaction in aqueous solution. The ascorbic acid also acted as a sacrificial species to prevent electrochemical degradation of the surface chemistry.
Reduction of benzoquinone (C6H4O2) into Hydroquinone (C6H6O2) can produce OH^− ions at −0.1V: BQ+2e^−+2H2O →HQ+2OH^− This reduction reaction increased the pH at the electrode interface.

[2] = molecular target: T1, Green Fluorescent Protein (GFP) (Aequorea victoria, UniProt P42212); settings: literature (Loomis et al.; U.S. Pat. No. 6,753,312); cited from earlier work
[3] = molecular target: T1, Green Fluorescent Protein (GFP); assay: Fluorescence intensity of GFP after incubation with benzoquinones (protein stability); format: biochemical; settings: 0.5 mM benzoquinone, phosphate buffered saline, 30 min
Experimental: Para-benzoquinones and ortho-benzoquinones (compounds 2, 4, 6, and 9 in FIG. 31) are susceptible to nucleophilic attack at the double bond of the ring (positions 2, 3, 5 and 6 in structure 2 of FIG. 31, positions 3, 4, 5 and 6 in structure 4 of FIG. 31, and positions 2 and 3 in structure 6 of FIG. 31). Introducing substituents at some or all of those positions can mitigate the problem of nucleophilic attack. […] Fluorescence intensity of Green Fluorescent Protein (GFP) was measured after incubation with three different benzoquinones in phosphate buffered saline for 30 min (concentration of benzoquinones was 0.5 mM). The difference in fluorescence intensity indicates the varied effect that the different substitutions in benzoquinones have on the stability of GFP. Fluorescence intensity of GFP is indicative of its structural integrity. Losses in fluorescence intensity usually indicate loss of its tertiary structure (protein denaturation) (Yin D. X., Zhu L., Schimke R. T. Anal. Biochem. 1996, 235:195-201).

Row | SMILES | potential of current increase indicating start of oxidation ([1]; cyclic voltammetry, ITO electrodes) | electrode potential at which it oxidizes ([1]; indium tin oxide vs Ag/AgCl reference electrode) | Michael addition reaction with amino groups of proteins [2] | potential of reduction producing OH- ions ([1]; reduction of benzoquinone into hydroquinone) | loss in GFP fluorescence intensity after incubation [3]
1 | O=C1O[C@H]([C@@H](O)CO)C(O)=C1O [ascorbic acid] | around 0.25 V | less than 0.5 V | – | – | –
2 | O=C1C=CC(=O)C=C1 [unsubstituted benzoquinone, 1,4-benzoquinone] | – | – | undergoes Michael addition reaction | −0.1 V | 25%
